{
  "source": "patent US20250352981A1",
  "about": "“PHOSPHOROUS BORON-BONDED COMPOUNDS FOR CAPTURING, STORING AND/OR UTILIZING CARBON DIOXIDE AND RELATED PRODUCTS COMPOSITIONS METHODS AND SYSTEMS” (California Institute of Technology, priority 2024, published 2025)",
  "key": {"[1]": {"experiment": "DFT transition state barrier for CO2 binding", "details": "Li+ coordinated to a CO2 oxygen and the hydrides of BH3−", "method": "(§1) All Density Functional Theory calculations were performed using the Jaguar v10.9 software from Schrodinger Inc. All calculations utilized the M06-2X meta-GGA functional with the D3 empirical correction for London Dispersion forces.^21, 22\n(§2) All atoms were described by the 6-311G**++ Pople basis set,^23 augmented with polarization and diffuse functions.\n(§3) All calculations included a continuum solvent treatment described by the Polarizable Continuum Model (CPCM).^24\n(§4) Unless otherwise noted, we used solvent parameters matching tetrahydrofuran (dielectric constant=7.6, probe radius=2.52).\n(§5) Vibrational frequency calculations were performed to confirm that all geometries are true minima (no negative eigenmodes of the Hessian) and to compute thermochemical properties such as enthalpy (H), entropy (S), and free energies (G) at 298.15 K. Because librational modes are hindered in solvent media, we corrected our free energies by reducing translational and rotational entropy modes by 50%."}, "[2]": {"experiment": "CO2 gas bubbled through phosphido-borane salt in THF, NMR analysis", "details": "CO2 at 1 atm, room temperature", "method": "Here 0.2218 g of the resulting phosphido-borane was dissolved in 3 ml of tetrahydrofuran (THF) in a 10 ml valve. Here 2 ml of THF was used to dissolve 0.1856 g of lithium bis(trimethylsilyl)amide (LiHMDS). The solution of LiHMDS was added drop wise to the solution of Li[Ph2PBH3] to minimize side reactions.\nCO2 gas was then bubbled through lithiated anionic phosphido-borane salt at 1 atm and room temperature for about 10 mins to saturate it with CO2.\nA typical one pot procedure for preparing the CO2 adducts was adding a solution of Ph2PHBH3 (5.314 mmol, in 4 ml of THF) to solution of MHMDs (5.314 mmol, in 4 ml of THF) dropwisely. An aliquot of the resulting was analyzed with the nmr to confirm the complete formation of M(Ph2PBH3) salt. The bulk solution was then saturated with CO2 gas under standard atmospheric pressure and temperature. The product was then crushed out with hexanes resulting in a whitish precipitate. Yield 98.5%"}, "[3]": {"experiment": "DFT-predicted CO2 binding free energy and charge/bond-order analysis of phosphido-boranes", "method": "as §1, §2, §3, §4, §5"}},
  "data": [
    {"substance": "anionic diphenylphosphido-borane [BoPh 4]", "values": [
      {"measurement": "reduction of ΔG‡ relative to Na+", "setting": "[1]", "result": "~2", "unit": "kcal/mol"},
      {"measurement": "CO2 binding observed in experiment", "setting": "[2]; listed as LiPh2PBH3", "result": "binds successfully with the CO2 molecule"},
      {"measurement": "CO2 binding observed in experiment", "setting": "[2]; listed as lithiated anionic phosphido-borane salt", "result": "formation of P—CO2 adducts"},
      {"measurement": "increase in binding energy on increasing counterion distance", "setting": "[3]; Li+ distance from the O—BH3 pocket increased by 0.35 Å", "result": "+5.9 kcal"},
      {"measurement": "increase of overall ΔG by explicit solvation", "setting": "[3]; explicit THF solvation vs continuum", "result": "+2.9 kcal/mol"}
    ]}
  ]
}
